Laboratory results reported in PubChem BioAssay (NCI).
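Five compound concentrations were applied to cells in 96-well plates for 48 hours; endpoints were derived by simple linear interpolation of the resulting dose-response curve. GI50 marks 50% less growth. The concentration for full growth arrest is given as TGI.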

Experiments:
Assay in all cases: NCI anticancer screen, dose series, 48 h
A549 NSCLC = test system: A549 NSCLC
UO-31 renal = test system: UO-31 renal
IGROV1 ovarian = test system: IGROV1 ovarian
NCI-H522 lung = test system: NCI-H522 lung
SK-OV-3 ovarian = test system: SK-OV-3 ovarian
HL-60(TB) leukemia = test system: HL-60(TB) leukemia
SF-268 CNS = test system: SF-268 CNS
K-562 leukemia = test system: K-562 leukemia
SNB-19 CNS = test system: SNB-19 CNS
NCI-H460 lung = test system: NCI-H460 lung
RPMI-8226 leukemia = test system: RPMI-8226 leukemia
SK-MEL-28 melanoma = test system: SK-MEL-28 melanoma
HCT-15 colon = test system: HCT-15 colon
SN12C renal = test system: SN12C renal
HCC-2998 colon = test system: HCC-2998 colon
EKVX NSCLC = test system: EKVX NSCLC
SK-MEL-2 melanoma = test system: SK-MEL-2 melanoma
HT29 colon = test system: HT29 colon
TK-10 renal = test system: TK-10 renal
SF-539 CNS = test system: SF-539 CNS
SW-620 colon = test system: SW-620 colon
CAKI-1 renal = test system: CAKI-1 renal
DU-145 prostate = test system: DU-145 prostate
SF-295 CNS = test system: SF-295 CNS
786-0 renal = test system: 786-0 renal
KM12 colon = test system: KM12 colon
ACHN renal = test system: ACHN renal
OVCAR-3 ovarian = test system: OVCAR-3 ovarian
SNB-75 CNS = test system: SNB-75 CNS
MOLT-4 leukemia = test system: MOLT-4 leukemia
OVCAR-5 ovarian = test system: OVCAR-5 ovarian
OVCAR-4 ovarian = test system: OVCAR-4 ovarian
A498 renal = test system: A498 renal
U251 CNS = test system: U251 CNS
HOP-62 NSCLC = test system: HOP-62 NSCLC
LOX IMVI melanoma = test system: LOX IMVI melanoma
UACC-62 melanoma = test system: UACC-62 melanoma
OVCAR-8 ovarian = test system: OVCAR-8 ovarian
T-47D breast = test system: T-47D breast
MDA-MB-231 breast = test system: MDA-MB-231 breast
MDA-MB-435 = test system: MDA-MB-435
M14 melanoma = test system: M14 melanoma
HS 578T breast = test system: HS 578T breast
BT-549 breast = test system: BT-549 breast
MALME-3M melanoma = test system: MALME-3M melanoma
MCF7 breast = test system: MCF7 breast
HCT-116 colon = test system: HCT-116 colon
PC-3 prostate = test system: PC-3 prostate
COLO 205 colon = test system: COLO 205 colon
RXF 393 renal = test system: RXF 393 renal
NCI/ADR-RES ovarian = test system: NCI/ADR-RES ovarian
SK-MEL-5 melanoma = test system: SK-MEL-5 melanoma
CCRF-CEM leukemia = test system: CCRF-CEM leukemia
SR leukemia = test system: SR leukemia
NCI-H23 lung = test system: NCI-H23 lung

`NC(=O)CCc1ccccc1Oc1nccc(-c2c(-c3ccc(F)cc3)ncn2C2CCNCC2)n1` showed a GI50 (A549 NSCLC) of over 25 µM, a TGI (A549 NSCLC) of over 25 µM and a GI50 (UO-31 renal) of over 25 µM. It also gave a TGI (UO-31 renal) of over 25 µM, a GI50 (IGROV1 ovarian) of over 25 µM and a TGI (IGROV1 ovarian) of over 25 µM. For the same compound, the GI50 (NCI-H522 lung) was over 25 µM, the TGI (NCI-H522 lung) was over 25 µM and the GI50 (SK-OV-3 ovarian) was over 25 µM. For the same compound, the TGI (SK-OV-3 ovarian) was over 25 µM, the GI50 (HL-60(TB) leukemia) was over 25 µM and the TGI (HL-60(TB) leukemia) was over 25 µM. The GI50 (SF-268 CNS) was over 25 µM, the TGI (SF-268 CNS) was over 25 µM and the GI50 (K-562 leukemia) was over 25 µM. It also gave a TGI (K-562 leukemia) of over 25 µM, a GI50 (SNB-19 CNS) of over 25 µM and a TGI (SNB-19 CNS) of over 25 µM. It also gave a GI50 (NCI-H460 lung) of over 25 µM, a TGI (NCI-H460 lung) of over 25 µM and a GI50 (RPMI-8226 leukemia) of over 25 µM. For the same compound, the TGI (RPMI-8226 leukemia) was over 25 µM, the GI50 (SK-MEL-28 melanoma) was over 25 µM and the TGI (SK-MEL-28 melanoma) was over 25 µM. It also gave a GI50 (HCT-15 colon) of over 25 µM, a TGI (HCT-15 colon) of over 25 µM and a GI50 (SN12C renal) of over 25 µM. The TGI (SN12C renal) was over 25 µM, the GI50 (HCC-2998 colon) was over 25 µM and the TGI (HCC-2998 colon) was over 25 µM. It also gave a GI50 (EKVX NSCLC) of over 25 µM, a TGI (EKVX NSCLC) of over 25 µM and a GI50 (SK-MEL-2 melanoma) of over 25 µM. It also gave a TGI (SK-MEL-2 melanoma) of over 25 µM, a GI50 (HT29 colon) of over 25 µM and a TGI (HT29 colon) of over 25 µM. For the same compound, the GI50 (TK-10 renal) was over 25 µM, the TGI (TK-10 renal) was over 25 µM and the GI50 (SF-539 CNS) was over 25 µM. It also gave a TGI (SF-539 CNS) of over 25 µM, a GI50 (SW-620 colon) of over 25 µM and a TGI (SW-620 colon) of over 25 µM. The GI50 (CAKI-1 renal) was over 25 µM, the TGI (CAKI-1 renal) was over 25 µM and the GI50 (DU-145 prostate) was over 25 µM. For the same compound, the TGI (DU-145 prostate) was over 25 µM, the GI50 (SF-295 CNS) was over 25 µM and the TGI (SF-295 CNS) was over 25 µM. The GI50 (786-0 renal) was over 25 µM, the TGI (786-0 renal) was over 25 µM and the GI50 (KM12 colon) was over 25 µM. It also gave a TGI (KM12 colon) of over 25 µM, a GI50 (ACHN renal) of over 25 µM and a TGI (ACHN renal) of over 25 µM. For the same compound, the GI50 (OVCAR-3 ovarian) was over 25 µM, the TGI (OVCAR-3 ovarian) was over 25 µM and the GI50 (SNB-75 CNS) was over 25 µM. For the same compound, the TGI (SNB-75 CNS) was over 25 µM, the GI50 (MOLT-4 leukemia) was over 25 µM and the TGI (MOLT-4 leukemia) was over 25 µM. The GI50 (OVCAR-5 ovarian) was over 25 µM, the TGI (OVCAR-5 ovarian) was over 25 µM and the GI50 (OVCAR-4 ovarian) was over 25 µM. It also gave a TGI (OVCAR-4 ovarian) of over 25 µM, a GI50 (A498 renal) of over 25 µM and a TGI (A498 renal) of over 25 µM. The GI50 (U251 CNS) was over 25 µM, the TGI (U251 CNS) was over 25 µM and the GI50 (HOP-62 NSCLC) was over 25 µM. It also gave a TGI (HOP-62 NSCLC) of over 25 µM, a GI50 (LOX IMVI melanoma) of over 25 µM and a TGI (LOX IMVI melanoma) of over 25 µM. It also gave a GI50 (UACC-62 melanoma) of over 25 µM, a TGI (UACC-62 melanoma) of over 25 µM and a GI50 (OVCAR-8 ovarian) of over 25 µM. The TGI (OVCAR-8 ovarian) was over 25 µM, the GI50 (T-47D breast) was over 25 µM and the TGI (T-47D breast) was over 25 µM. The GI50 (MDA-MB-231 breast) was over 25 µM, the TGI (MDA-MB-231 breast) was over 25 µM and the GI50 (MDA-MB-435) was over 25 µM. It also gave a TGI (MDA-MB-435) of over 25 µM, a GI50 (M14 melanoma) of over 25 µM and a TGI (M14 melanoma) of over 25 µM. The GI50 (HS 578T breast) was over 25 µM, the TGI (HS 578T breast) was over 25 µM and the GI50 (BT-549 breast) was over 25 µM. It also gave a TGI (BT-549 breast) of over 25 µM, a GI50 (MALME-3M melanoma) of over 25 µM and a TGI (MALME-3M melanoma) of over 25 µM. It also gave a GI50 (MCF7 breast) of over 25 µM, a TGI (MCF7 breast) of over 25 µM and a GI50 (HCT-116 colon) of over 25 µM. For the same compound, the TGI (HCT-116 colon) was over 25 µM, the GI50 (PC-3 prostate) was over 25 µM and the TGI (PC-3 prostate) was over 25 µM. The GI50 (COLO 205 colon) was over 25 µM, the TGI (COLO 205 colon) was over 25 µM and the GI50 (RXF 393 renal) was over 25 µM. The TGI (RXF 393 renal) was over 25 µM, the GI50 (NCI/ADR-RES ovarian) was over 25 µM and the TGI (NCI/ADR-RES ovarian) was over 25 µM. For the same compound, the GI50 (SK-MEL-5 melanoma) was over 25 µM and the TGI (SK-MEL-5 melanoma) was over 25 µM.
`COc1ccc(-c2coc3cc(O)cc(O)c3c2=O)cc1` gave a TGI (A549 NSCLC) of over 10 µM, a TGI (IGROV1 ovarian) of over 10 µM and a TGI (SK-OV-3 ovarian) of over 10 µM. The TGI (HL-60(TB) leukemia) was over 10 µM, the TGI (SF-268 CNS) was over 10 µM and the TGI (CCRF-CEM leukemia) was over 10 µM. It also gave a TGI (K-562 leukemia) of over 10 µM, a TGI (NCI-H460 lung) of over 10 µM and a TGI (RPMI-8226 leukemia) of over 10 µM. It also gave a TGI (SK-MEL-28 melanoma) of over 10 µM, a TGI (SK-MEL-2 melanoma) of over 10 µM and a TGI (SW-620 colon) of over 10 µM. For the same compound, the TGI (CAKI-1 renal) was over 10 µM, the TGI (SR leukemia) was over 10 µM and the TGI (786-0 renal) was over 10 µM. It also gave a TGI (ACHN renal) of over 10 µM, a TGI (SNB-75 CNS) of over 10 µM and a TGI (MOLT-4 leukemia) of over 10 µM. It also gave a TGI (OVCAR-5 ovarian) of over 10 µM, a TGI (OVCAR-4 ovarian) of over 10 µM and a TGI (U251 CNS) of over 10 µM. It also gave a TGI (HOP-62 NSCLC) of over 10 µM, a TGI (UACC-62 melanoma) of over 10 µM and a TGI (NCI-H23 lung) of over 10 µM. For the same compound, the TGI (T-47D breast) was over 10 µM, the TGI (MDA-MB-435) was over 10 µM and the TGI (M14 melanoma) was over 10 µM. It also gave a TGI (MALME-3M melanoma) of over 10 µM, a TGI (MCF7 breast) of over 10 µM and a TGI (COLO 205 colon) of over 10 µM. For the same compound, the TGI (RXF 393 renal) was over 10 µM, the TGI (NCI/ADR-RES ovarian) was over 10 µM and the TGI (SK-MEL-5 melanoma) was over 10 µM.
